From patent publication US6515025B2, “Use of ethynyl alanine amino diol compounds to inhibit enzymatic conversion of angiotensinogen to angiotensin I” (Pharmacia Corporation, priority 1991, dated 2003) come the findings set out here.

Substitutions are numbered along the chain they refer to.

The target in assay [1] is T1, renin (Cyno Monkey plasma) (Macaca fascicularis, UniProt Q6DLS0).
T1 construct: the animal plasma is the source of both the renin substrate and the renin enzyme; from tissue; host or cells: pooled cynomolgus monkey plasma
T1 sequence (Q6DLS0 67-406): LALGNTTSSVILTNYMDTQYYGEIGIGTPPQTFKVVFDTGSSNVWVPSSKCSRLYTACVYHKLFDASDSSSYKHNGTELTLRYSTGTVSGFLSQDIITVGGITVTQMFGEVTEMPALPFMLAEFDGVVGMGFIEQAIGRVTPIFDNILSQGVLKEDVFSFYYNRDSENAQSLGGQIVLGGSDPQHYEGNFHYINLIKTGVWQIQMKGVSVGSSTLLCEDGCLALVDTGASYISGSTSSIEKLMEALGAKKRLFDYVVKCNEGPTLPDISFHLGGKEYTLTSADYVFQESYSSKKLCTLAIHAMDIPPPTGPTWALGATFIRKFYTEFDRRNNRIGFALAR
The assay can be described thus: Renin inhibitor species specificity, cyno monkey plasma renin activity. Format: biochemical. As to the method: (§1) Blood was collected in a 10 ml Becton Dickinson vacutainer tube with 0.1 ml of 15% EDTA (K3) solution (15 mg) from normal animals or high renin animals; i.e., those pre-treated with 5 mg/kg of Lasix® intramuscularly 2 times within a 6 hour interval 24 hours prior to bleeding. The blood was then centrifuged at 2500 RPM for 20 minutes and the plasma from the various species respectively pooled, aliquoted and stored in the freezer. The human plasma source was taking a prescription of an angiotensin converting enzyme inhibitor.
(§2) The plasma renin activity assay is a modification of the human renin inhibition test in that the animal plasma is the source of both the renin substrate and the renin enzyme. In a total volume of 0.1 ml, 90 mM Tris-acetate buffer, pH 7.5, 12 mM sodium EDTA, 0.012 mg/ml neomycin sulfate, 0.9 mg/ml bovine serum albumin, 1.61 mM phenylmethyl sulfonyl fluoride, 4 mM 8-hydroxyquinoline and 0.09 ml of the animal or human plasmas were incubated for 2 hours at 37° C. in a shaking water bath or at 4° C. in an ice bath in the presence or absence of renin inhibitors. The produced angiotensin I was determined by radioimmunoassay (New England Nuclear kit).
(§3) The amount of angiotensin I generated during the 2 hours at 4° C. was usually less than 5% of that activity produced at 37° C.; however, the 4° C. background values were nevertheless subtracted from the 37° C. ones for the 100% activity values. The renin inhibitors were assayed in duplicate using 5 concentrations and the data is expressed as a percent of the 100% total renin activity.

Another assay deals with T2, human renin (Homo sapiens, UniProt P00797).
T2 construct: purchased National Institute for Biological Standards, London
T2 sequence (P00797 67-406): T1 sequence (Q6DLS0 67-406) with A2T, L148I, A169S
The assay can be described thus: Human renin inhibition in vitro. The format is biochemical. As for the experimental part:
Compounds of Formula I were evaluated as inhibitors of human renin in an in vitro assay, as follows: This human renin inhibition test has been previously described in detail [Papaioannou et al., Clinical and Experimental Hypertension, A7(9), 1243-1257 (1985)]. Human renin was obtained from the National Institute for Biological Standards, London. An incubation mixture was prepared containing the following components: in a total volume of 0.25 mL: 100 mM Tris-acetate buffer at pH 7.4, 25×10^−6 Goldblatt units of renin, 0.05 mL of plasma from human volunteers taking oral contraceptives, 6.0 mM Na-EDTA, 2.4 mM phenylmethyl sulfonyl fluoride, 1.5 mM 8-hydroxyquinoline, 0.4 mg/mL bovine serum albumin (BSA), and 0.024 mg/mL neomycin sulfate. This mixture was incubated for two hours at 37° C. in the presence or absence of renin inhibitors. The produced angiotensin I was determined by radioimmunoassay (New England Nuclear kit). Test compounds to be assayed were dissolved in DMSO and diluted with 100 mM Tris-acetate buffer at pH 7.4 containing 0.5% BSA to the appropriate concentration. The final concentration of organic solvent in the reaction mixture was less than 1%. Control incubations at 37° C. were used to correct for effects of organic solvent on renin activity.

In a further assay the target is T3, renin (Rat plasma) (Rattus norvegicus, UniProt P08424).
T3 construct: the animal plasma is the source of both the renin substrate and the renin enzyme; from tissue; host or cells: pooled rat plasma
T3 sequence (P08424 65-402): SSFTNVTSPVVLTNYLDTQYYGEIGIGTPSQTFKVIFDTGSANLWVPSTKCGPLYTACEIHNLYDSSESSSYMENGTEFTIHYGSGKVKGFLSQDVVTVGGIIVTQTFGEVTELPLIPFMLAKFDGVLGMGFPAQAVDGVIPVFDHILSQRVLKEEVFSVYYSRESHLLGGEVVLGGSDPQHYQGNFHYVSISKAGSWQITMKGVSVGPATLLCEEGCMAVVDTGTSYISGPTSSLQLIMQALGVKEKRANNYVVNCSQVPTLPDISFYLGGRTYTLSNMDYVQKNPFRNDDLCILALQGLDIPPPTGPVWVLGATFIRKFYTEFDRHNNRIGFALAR
The assay can be described thus: Renin inhibitor species specificity, rat plasma renin activity. The format is biochemical. As for the experimental part:
as §1, §2, §3

For assay [2], the system named is salt-depleted, conscious marmosets. The assay can be described thus: Marmoset blood pressure reduction on intravenous administration. Conditions: 100 micrograms/kg intravenously. Format: in vivo, Marmoset monkeys (Callithrix jacchus). As to the method: The blood pressure reducing activity of the renin inhibitor compound of Example 1 was determined in vivo in Marmoset monkeys using the following procedure. Common Marmoset monkeys (Callithrix jacchus, Charles River, both sexes, body weight ca. 400 g) were placed on a modified high protein low sodium diet (Purina, St. Louis, Mo.) for 1 week. 24 hours prior to the administration of test compound, Lasix (5 mg/kg, im) was given. On the day of the test, the animal was anesthetized with isoflurane, body weight recorded, and the left femoral artery and vein were catheterized. The animal was allowed to regain consciousness and the title compound of Example 1 (100 micrograms/kg) was administered intravenously in 0.1 mL/kg polyethylene glycol 400 at time zero. Mean arterial blood pressure (MABP) in mmHg was then recorded every ten minutes until 120 minutes.

As usually defined, the IC50 is the concentration needed to halve the response being measured.

For `C#CC[C@H](NC(=O)C(CC(=O)N(C)CCN(C)C)Cc1ccccc1)C(=O)NC(CC1CCCCC1)[C@@H](O)C(O)CC(C)C` (relative stereo) [Example 1, N1-[1R*-[[[1S,1R*-(cyclohexylmethyl)-2S*,3R*-dihydroxy-5-methylhexyl]amino]carbonyl]-3-butynyl]-N4-[2-(dimethylamino)ethyl]-N4-methyl-2S*-(phenylmethyl)butanediamide], the “% of Total Renin Activity” value amounted to 81% in assay [1] (1 nM); 51% in assay [1] (4 nM); 18% in assay [1] (16 nM); 93% on renin (Rat plasma) (100 nM); 76% on renin (Rat plasma) (400 nM). On human renin, the IC50 is 1 nM. Besides, the “% of Total Renin Activity (range only)” value at renin (Rat plasma) (1600 nM) is “(23-34)”. The MABP in assay [2] (10 min (n = 3)) is reported as 106 mmHg; in assay [2] (20 min (n = 3)) it was 97 mmHg; in assay [2] (30 min (n = 3)), 93 mmHg; in assay [2] (40 min (n = 3)), 92 mmHg; in assay [2] (50 min (n = 3)), 90 mmHg; in assay [2] (60 min (n = 3)), 89 mmHg. Moreover, the MABP in assay [2] (70 min (n = 3)) is on record as 87 mmHg; in assay [2] (80 min (n = 3)), 88 mmHg; in assay [2] (90 min (n = 3)), 89 mmHg; in assay [2] (100 min (n = 3)), 91 mmHg; in assay [2] (110 min (n = 3)) it was 93 mmHg; in assay [2] (120 min (n = 3)), 94 mmHg. In addition, the MABP in assay [2] (time 0 min (n = 3)) is given as 118 mmHg. In addition, in assay [2] (salt-depleted, conscious marmosets), the “effect on blood pressure (in words)” value is on record as “lowers blood pressure”.
